From the supplement of paper PMC11208160

assay: recombinant UMI read abundance after kanamycin selection (control-corrected) (log10(CPM+1)); higher = more efficient recombination; extreme values may be limits of the assay; sequences stand for … in AGTGCAGAGAAAATCGGCCAGTTTTCTCTGCCTGCAGTCCGCATGCCGTGGGACCCCTTGGGTTCTAACCTGTTGCCTAGATTTATGCAGCGGACTGCCTTTCTCCCAAAGTGATAAACCGG…AGGTTGGTTTCACT; site = the 11-nt donor
Summary of the method: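 Under IPTG (0.07 mM) plus kanamycin, or without selection, Escherichia coli carrying a UMI-tagged donor and donor-binding-loop pair library and a target plasmid for the IS621 bridge recombinase were plated in two replicates. Recombinant UMIs were PCR-amplified across the donor–target junction and sequenced. Counts were converted to CPM, averaged over replicates, scaled by control-derived factors and reported as log10(CPM+1).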
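Also: IS621 bridge recombinase in Escherichia coli cells against a fixed T5 target plasmid.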

| Sequence | recombinant UMI read abundance (log10) |
| --- | --- |
| GTAGATACATGGACCGGTTTTCCCGGTAATCCGTATTTGAC (site GTAGATACTGT) | 2.29 |
| GTAGATACATGGACCGGTTTTCCCGGTAATCCGTATTTGAC (site GTAGCTACTGT) | 0 |
| GTAGATACATGGACCGGTTTTCCCGGTAATCCGTATTTGAC (site GTAGGTACTGT) | 1.38 |
| GTAGATACATGGACCGGTTTTCCCGGTAATCCGTATTTGAC (site GTAGTTACTGT) | 0.903 |
| GTAGATTCATGGACCGGTTTTCCCGGTAATCCGTATTTGCA (site GTAGATTCTTG) | 2.86 |
| GTAGCAGCATGGACCGGTTTTCCCGGTAATCCGTATTTGGA (site GTAGCAGCTTC) | 0.62 |
| GTAGCTCCATGGACCGGTTTTCCCGGTAATCCGTATTTGAA (site GTAGCTCCTTT) | 1 |
| GTAGGGACATGGACCGGTTTTCCCGGTAATCCGTATTTGAC (site GTAGGAACTGT) | 2.21 |
| GTAGGGACATGGACCGGTTTTCCCGGTAATCCGTATTTGAC (site GTAGGCACTGT) | 2.04 |
| GTAGGGACATGGACCGGTTTTCCCGGTAATCCGTATTTGAC (site GTAGGGACTGT) | 2.63 |
| GTAGGGACATGGACCGGTTTTCCCGGTAATCCGTATTTGAC (site GTAGGTACTGT) | 1.87 |
| GTAGGTACATGGACCGGTTTTCCCGGTAATCCGTATTTGTT (site GTAGGTACTAA) | 1.01 |
| GTAGGTCCATGGACCGGTTTTCCCGGTAATCCGTATTTGAC (site GTAGGTACTGT) | 0 |
| GTAGGTCCATGGACCGGTTTTCCCGGTAATCCGTATTTGAC (site GTAGGTCCTGT) | 0 |
| GTAGGTCCATGGACCGGTTTTCCCGGTAATCCGTATTTGAC (site GTAGGTGCTGT) | 0 |
| GTAGGTCCATGGACCGGTTTTCCCGGTAATCCGTATTTGAC (site GTAGGTTCTGT) | 0 |
| GTAGGTTCATGGACCGGTTTTCCCGGTAATCCGTATTTGAC (site GTAGGTACTGT) | 1.88 |
| GTAGGTTCATGGACCGGTTTTCCCGGTAATCCGTATTTGAC (site GTAGGTCCTGT) | 1.78 |
| GTAGGTTCATGGACCGGTTTTCCCGGTAATCCGTATTTGAC (site GTAGGTGCTGT) | 0 |
| GTAGGTTCATGGACCGGTTTTCCCGGTAATCCGTATTTGAC (site GTAGGTTCTGT) | 2.46 |
| GTAGTATCATGGACCGGTTTTCCCGGTAATCCGTATTTGAT (site CTAGTATCTGT) | 1.05 |
| GTAGTATCATGGACCGGTTTTCCCGGTAATCCGTATTTGAT (site GTAGTATCTAT) | 3.08 |
| GTAGTGGCATGGACCGGTTTTCCCGGTAATCCGTATTTGGT (site GAAGTGGCTAC) | 0.458 |
| GTAGTGGCATGGACCGGTTTTCCCGGTAATCCGTATTTGGT (site GCAGTGGCTAC) | 0.771 |
| GTAGTGGCATGGACCGGTTTTCCCGGTAATCCGTATTTGGT (site GGAGTGGCTAC) | 0.028 |

| Sequence | recombinant UMI read abundance (log10) |
| --- | --- |
| GTAGTGGCATGGACCGGTTTTCCCGGTAATCCGTATTTGGT (site GTAGTGGCTAC) | 1.85 |
| GTAGTGTCATGGACCGGTTTTCCCGGTAATCCGTATTTGAC (site CTAGTATCTGT) | 2.03 |
| GTAGTGTCATGGACCGGTTTTCCCGGTAATCCGTATTTGAC (site GTAGTGTCTGT) | 3.23 |
| GTAGTTTCATGGACCGGTTTTCCCGGTAATCCGTATTTGTA (site GTAGTTTCTTA) | 2.61 |
| GTATGCACATGGACCGGTTTTCCCGGTAATCCGTATTTGCA (site GTATGCACTTA) | 0.546 |
| GTATGCACATGGACCGGTTTTCCCGGTAATCCGTATTTGCA (site GTATGCACTTC) | 0.0124 |
| GTATGCACATGGACCGGTTTTCCCGGTAATCCGTATTTGCA (site GTATGCACTTG) | 2.67 |
| GTATGCACATGGACCGGTTTTCCCGGTAATCCGTATTTGCA (site GTATGCACTTT) | 0.427 |
| GTATGCACATGGACCGGTTTTCCCGGTAATCCGTATTTGTA (site ATATGCACTTA) | 0.664 |
| GTATGCACATGGACCGGTTTTCCCGGTAATCCGTATTTGTA (site CTATGCACTTA) | 0.712 |
| GTATGCACATGGACCGGTTTTCCCGGTAATCCGTATTTGTA (site GAATGCACTTA) | 0.0229 |
| GTATGCACATGGACCGGTTTTCCCGGTAATCCGTATTTGTA (site GCATGCACTTA) | 0.671 |
| GTATGCACATGGACCGGTTTTCCCGGTAATCCGTATTTGTA (site GGATGCACTTA) | 0.58 |
| GTATGCACATGGACCGGTTTTCCCGGTAATCCGTATTTGTA (site GTAAGCACTTA) | 0.776 |
| GTATGCACATGGACCGGTTTTCCCGGTAATCCGTATTTGTA (site GTACGCACTTA) | 1.72 |
| GTATGCACATGGACCGGTTTTCCCGGTAATCCGTATTTGTA (site GTAGGCACTTA) | 0.461 |
| GTATGCACATGGACCGGTTTTCCCGGTAATCCGTATTTGTA (site GTATACACTTA) | 2.07 |
| GTATGCACATGGACCGGTTTTCCCGGTAATCCGTATTTGTA (site GTATCCACTTA) | 0.28 |
| GTATGCACATGGACCGGTTTTCCCGGTAATCCGTATTTGTA (site GTATGAACTTA) | 0.66 |
| GTATGCACATGGACCGGTTTTCCCGGTAATCCGTATTTGTA (site GTATGCACTAA) | 0.126 |
| GTATGCACATGGACCGGTTTTCCCGGTAATCCGTATTTGTA (site GTATGCACTCA) | 0.0356 |
| GTATGCACATGGACCGGTTTTCCCGGTAATCCGTATTTGTA (site GTATGCACTGA) | 1.72 |
| GTATGCACATGGACCGGTTTTCCCGGTAATCCGTATTTGTA (site GTATGCACTTA) | 2.07 |
| GTATGCACATGGACCGGTTTTCCCGGTAATCCGTATTTGTA (site GTATGCACTTC) | 0.0256 |
| GTATGCACATGGACCGGTTTTCCCGGTAATCCGTATTTGTA (site GTATGCACTTG) | 1.71 |

| Sequence | recombinant UMI read abundance (log10) |
| --- | --- |
| GTATGCACATGGACCGGTTTTCCCGGTAATCCGTATTTGTA (site GTATGCACTTT) | 0.44 |
| GTATGCACATGGACCGGTTTTCCCGGTAATCCGTATTTGTA (site GTATGCCCTTA) | 0.0248 |
| GTATGCACATGGACCGGTTTTCCCGGTAATCCGTATTTGTA (site GTATGCGCTTA) | 0.376 |
| GTATGCACATGGACCGGTTTTCCCGGTAATCCGTATTTGTA (site GTATGCTCTTA) | 1.19 |
| GTATGCACATGGACCGGTTTTCCCGGTAATCCGTATTTGTA (site GTATGGACTTA) | 0.0258 |
| GTATGCACATGGACCGGTTTTCCCGGTAATCCGTATTTGTA (site GTATGTACTTA) | 0.274 |
| GTATGCACATGGACCGGTTTTCCCGGTAATCCGTATTTGTA (site GTATTCACTTA) | 1.3 |
| GTATGCACATGGACCGGTTTTCCCGGTAATCCGTATTTGTA (site GTCTGCACTTA) | 0.0377 |
| GTATGCACATGGACCGGTTTTCCCGGTAATCCGTATTTGTA (site GTGTGCACTTA) | 0.384 |
| GTATGCACATGGACCGGTTTTCCCGGTAATCCGTATTTGTA (site GTTTGCACTTA) | 0 |
| GTATGCACATGGACCGGTTTTCCCGGTAATCCGTATTTGTA (site TTATGCACTTA) | 0.185 |
| GTATGTACATGGACCGGTTTTCCCGGTAATCCGTATTTGTA (site GTATGAACTTA) | 1.74 |
| GTATGTACATGGACCGGTTTTCCCGGTAATCCGTATTTGTA (site GTATGCACTTA) | 1.61 |
| GTATGTACATGGACCGGTTTTCCCGGTAATCCGTATTTGTA (site GTATGGACTTA) | 0.499 |
| GTATGTACATGGACCGGTTTTCCCGGTAATCCGTATTTGTA (site GTATGTACTTA) | 2.09 |
| GTATGTCCATGGACCGGTTTTCCCGGTAATCCGTATTTGAG (site GTATGTCCTCT) | 0.428 |
| GTATTAACATGGACCGGTTTTCCCGGTAATCCGTATTTGTG (site GTATTAACTCA) | 2.02 |
| GTCACGCCATGGACCGGTTTTCCCGGTAATCCGTATTTGTA (site GACACGCCTTA) | 0.00466 |
| GTCACGCCATGGACCGGTTTTCCCGGTAATCCGTATTTGTA (site GCCACGCCTTA) | 0 |
| GTCACGCCATGGACCGGTTTTCCCGGTAATCCGTATTTGTA (site GGCACGCCTTA) | 0.00905 |
| GTCACGCCATGGACCGGTTTTCCCGGTAATCCGTATTTGTA (site GTCACGCCTTA) | 0.476 |
| GTCACGGCATGGACCGGTTTTCCCGGTAATCCGTATTTGAA (site GTCACGGCTTT) | 1.2 |
| GTCACGTCATGGACCGGTTTTCCCGGTAATCCGTATTTGCG (site GTCACGTCTCG) | 2.07 |
| GTCAGGACATGGACCGGTTTTCCCGGTAATCCGTATTTGTC (site GTCAGGACTGA) | 2.38 |
| GTCATGGCATGGACCGGTTTTCCCGGTAATCCGTATTTGAA (site GTCATGGCTTT) | 1.99 |
